Active and inactive are the calls of the source. The calls are words filed in the database; no cut-off is given here.

The species named for one assay is Bos taurus. The assay can be described thus: Inhibition of bovine placenta alkaline phosphatase using p-nitrophenyl phosphate as substrate at 8.7 x 10^-5 M up to 35 mins by spectrophotometry.
Assay [1] deals with T1, Alkaline phosphatase, tissue-nonspecific isozyme (Homo sapiens) (UniProt P05186).
T1 sequence (whole entry): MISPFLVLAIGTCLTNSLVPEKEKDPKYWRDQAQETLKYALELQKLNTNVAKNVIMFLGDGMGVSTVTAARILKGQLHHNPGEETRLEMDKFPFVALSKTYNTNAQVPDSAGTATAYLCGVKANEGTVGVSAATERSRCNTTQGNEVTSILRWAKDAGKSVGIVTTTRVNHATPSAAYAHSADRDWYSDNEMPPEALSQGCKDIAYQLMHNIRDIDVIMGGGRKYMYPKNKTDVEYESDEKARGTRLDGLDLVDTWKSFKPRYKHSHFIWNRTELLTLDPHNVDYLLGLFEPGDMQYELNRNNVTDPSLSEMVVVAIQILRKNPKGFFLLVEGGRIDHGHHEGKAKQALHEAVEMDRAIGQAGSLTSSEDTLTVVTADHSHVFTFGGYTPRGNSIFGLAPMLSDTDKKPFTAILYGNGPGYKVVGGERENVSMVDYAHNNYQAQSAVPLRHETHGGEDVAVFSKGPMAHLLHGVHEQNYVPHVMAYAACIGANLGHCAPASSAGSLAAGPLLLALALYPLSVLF
As to the kind of experiment: Inhibition of human serum containing 60% liver alkaline phosphatase using p-nitrophenyl phosphate as substrate at 8.7 x 10^-5 M up to 35 mins by spectrophotometry.

In assay [2] the target is Intestinal-type alkaline phosphatase (Homo sapiens) (UniProt P09923). The assay can be described thus: Inhibition of human serum containing 26% intestine alkaline phosphatase using p-nitrophenyl phosphate as substrate at 8.7 x 10^-5 M up to 35 mins by spectrophotometry.
The target of assay [3] is Alkaline phosphatase, placental type (Homo sapiens) (UniProt P05187). As to the kind of experiment: Inhibition of human placenta alkaline phosphatase using p-nitrophenyl phosphate as substrate at 8.7 x 10^-5 M up to 35 mins by spectrophotometry.
Assay [4] concerns the target T1, Alkaline phosphatase, tissue-nonspecific isozyme (Homo sapiens). As to the kind of experiment: Inhibition of human serum containing 64% liver alkaline phosphatase using p-nitrophenyl phosphate as substrate at 8.7 x 10^-5 M up to 35 mins by spectrophotometry.
The target is the same in assay [5]. The assay can be described thus: Inhibition of human serum containing 40% bone alkaline phosphatase using p-nitrophenyl phosphate as substrate at 8.7 x 10^-5 M up to 35 mins by spectrophotometry.
Assay [6] shares this target. The assay can be described thus: Inhibition of human serum containing 8% liver alkaline phosphatase using p-nitrophenyl phosphate as substrate at 8.7 x 10^-5 M up to 35 mins by spectrophotometry.
Assay [7] shares this target. The assay can be described thus: Inhibition of human serum containing 86% liver alkaline phosphatase using p-nitrophenyl phosphate as substrate at 8.7 x 10^-5 M up to 35 mins by spectrophotometry.
The target is the same in assay [8]. The assay can be described thus: Inhibition of human serum containing 10% bone alkaline phosphatase using p-nitrophenyl phosphate as substrate at 8.7 x 10^-5 M up to 35 mins by spectrophotometry.
The target is the same in assay [9]. The assay can be described thus: Inhibition of human serum containing 92% liver alkaline phosphatase using p-nitrophenyl phosphate as substrate at 8.7 x 10^-5 M up to 35 mins by spectrophotometry.
Assay [10] concerns the target Intestinal-type alkaline phosphatase (Bos taurus) (UniProt P19111). As to the kind of experiment: Inhibition of calf intestine alkaline phosphatase using p-nitrophenyl phosphate as substrate at 8.7 x 10^-5 M up to 35 mins by spectrophotometry.
Assay [11] addresses T2, Alkaline phosphatase, tissue-nonspecific isozyme (Bos taurus) (UniProt P09487).
T2 sequence (whole entry): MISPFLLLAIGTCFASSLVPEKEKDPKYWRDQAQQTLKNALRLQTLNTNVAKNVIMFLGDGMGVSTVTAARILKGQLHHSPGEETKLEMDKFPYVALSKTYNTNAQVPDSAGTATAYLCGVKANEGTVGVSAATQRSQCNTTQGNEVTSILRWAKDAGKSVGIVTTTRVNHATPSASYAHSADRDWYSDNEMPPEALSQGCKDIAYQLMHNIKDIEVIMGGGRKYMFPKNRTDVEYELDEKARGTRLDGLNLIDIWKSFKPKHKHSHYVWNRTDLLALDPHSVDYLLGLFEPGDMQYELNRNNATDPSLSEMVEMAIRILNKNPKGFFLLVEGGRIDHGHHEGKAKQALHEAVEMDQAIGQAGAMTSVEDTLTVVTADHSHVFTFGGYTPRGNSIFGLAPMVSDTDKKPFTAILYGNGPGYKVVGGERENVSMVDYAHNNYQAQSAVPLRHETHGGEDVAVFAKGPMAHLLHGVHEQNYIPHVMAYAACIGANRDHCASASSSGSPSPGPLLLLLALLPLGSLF
The assay can be described thus: Inhibition of bovine liver alkaline phosphatase using p-nitrophenyl phosphate as substrate at 8.7 x 10^-5 M up to 35 mins by spectrophotometry.

For assay [12], the target named is T1, Alkaline phosphatase, tissue-nonspecific isozyme (Homo sapiens). As to the kind of experiment: Inhibition of human serum containing 14% bone alkaline phosphatase using p-nitrophenyl phosphate as substrate at 8.7 x 10^-5 M up to 35 mins by spectrophotometry.

Sequence of Intestinal-type alkaline phosphatase (Homo sapiens) (P09923 20-503 limits assumed): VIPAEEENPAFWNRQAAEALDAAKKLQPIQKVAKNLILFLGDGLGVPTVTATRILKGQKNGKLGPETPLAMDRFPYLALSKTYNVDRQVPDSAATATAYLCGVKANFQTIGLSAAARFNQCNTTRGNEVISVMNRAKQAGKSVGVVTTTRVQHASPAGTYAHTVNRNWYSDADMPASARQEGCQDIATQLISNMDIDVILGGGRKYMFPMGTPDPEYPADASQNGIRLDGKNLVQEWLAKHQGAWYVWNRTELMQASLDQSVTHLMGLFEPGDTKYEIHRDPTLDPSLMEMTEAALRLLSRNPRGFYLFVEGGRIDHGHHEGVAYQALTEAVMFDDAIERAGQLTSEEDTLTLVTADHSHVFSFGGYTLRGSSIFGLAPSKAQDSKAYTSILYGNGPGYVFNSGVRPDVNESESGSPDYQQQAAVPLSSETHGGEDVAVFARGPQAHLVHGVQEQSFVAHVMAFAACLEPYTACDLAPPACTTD
Sequence of Intestinal-type alkaline phosphatase (Bos taurus) (P19111 20-506 limits assumed): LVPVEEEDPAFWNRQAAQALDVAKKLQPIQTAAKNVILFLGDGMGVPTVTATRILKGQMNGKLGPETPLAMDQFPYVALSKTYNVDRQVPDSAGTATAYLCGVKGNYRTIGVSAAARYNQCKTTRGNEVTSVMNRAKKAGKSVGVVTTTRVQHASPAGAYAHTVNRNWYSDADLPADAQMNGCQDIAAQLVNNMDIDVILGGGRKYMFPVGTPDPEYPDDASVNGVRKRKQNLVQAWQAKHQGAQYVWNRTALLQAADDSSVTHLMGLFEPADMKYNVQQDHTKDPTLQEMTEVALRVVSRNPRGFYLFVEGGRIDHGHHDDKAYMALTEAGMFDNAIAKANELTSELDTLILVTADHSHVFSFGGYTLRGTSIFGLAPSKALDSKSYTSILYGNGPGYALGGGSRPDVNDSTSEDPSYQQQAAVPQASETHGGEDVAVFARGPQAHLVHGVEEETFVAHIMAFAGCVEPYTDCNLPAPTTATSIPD
Sequence of Alkaline phosphatase, placental type (Homo sapiens) (P05187 whole entry): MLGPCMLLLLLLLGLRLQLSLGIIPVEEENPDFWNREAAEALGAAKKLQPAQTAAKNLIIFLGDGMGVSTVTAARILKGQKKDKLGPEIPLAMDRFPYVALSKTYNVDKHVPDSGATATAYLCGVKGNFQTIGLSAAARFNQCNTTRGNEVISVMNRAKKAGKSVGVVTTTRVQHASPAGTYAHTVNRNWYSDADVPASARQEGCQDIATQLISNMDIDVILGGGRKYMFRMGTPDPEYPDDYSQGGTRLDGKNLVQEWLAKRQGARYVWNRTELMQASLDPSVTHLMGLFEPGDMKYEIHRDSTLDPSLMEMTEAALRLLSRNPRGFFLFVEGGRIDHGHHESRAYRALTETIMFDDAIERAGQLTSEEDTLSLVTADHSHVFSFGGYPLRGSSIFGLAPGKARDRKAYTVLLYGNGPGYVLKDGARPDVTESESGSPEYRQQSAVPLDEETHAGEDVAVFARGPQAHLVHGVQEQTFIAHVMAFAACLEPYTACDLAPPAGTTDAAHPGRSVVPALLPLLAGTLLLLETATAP

Regarding `c1ccc([C@H]2CN3CC[Se]C3=N2)cc1`, the inhibition in the assay listed under Bos taurus worked out at 78%; in [1], 78%; in assay [2], 70%; in assay [3], 0%; in [4], 70%; in assay [5] it was 78%. Moreover, the inhibition in assay [6] was 80%; in [7], 63%; in assay [8], 70%; in [9], 80%; in assay [10], 10%; in assay [11] it was 76%. The molecule also had an inhibition in assay [12] of 63%.

For `c1ccc([C@@H]2CN3CCSC3=N2)cc1` (stereo in doubt; (-)), the inhibition in the assay filed under Bos taurus was determined as 75%; in assay [1], 71%; in assay [2], 65%; in assay [3], 0%; in assay [4], 65%; in assay [5], 71%. Further, the inhibition is 76% in [6]; 56% in assay [7]; 65% in [8]; 76% in [9]; 10% in assay [10]; 67% in [11]. In addition, the inhibition in assay [12] stood at 56%.

Take `c1ccc([C@@H]2CN3CCSC3=N2)cc1` (stereo in doubt; (+)): the inhibition entry (in the assay listed under Bos taurus; in assay [1]; in assay [2]; in assay [3]; in assay [4]; in [5]) was “inactive” in each case. Besides, the inhibition result in [6], in assay [7], in assay [8], in assay [9], in assay [10] and in [11] was “inactive” each time. In addition, the inhibition result in assay [12] is “inactive”.

In the case of `c1ccc([C@@H]2CN3CC[Se]C3=N2)cc1`, the inhibition entry (in the assay listed under Bos taurus; in assay [1]; in [2]; in [3]; in assay [4]; in assay [5]) was “inactive” throughout. The inhibition entry in assay [6], in assay [7], in [8], in assay [9], in [10] and in assay [11] was “inactive” each time. Besides, the inhibition entry in assay [12] is “inactive”.

As a reminder, the inhibition is the change of the read-out against control, counted positive when it falls.

The record behind these values is ChEMBL document CHEMBL3244014, “Selenium-sulfur analogues. 1. Synthesis and biochemical evaluation of selenotetramisole” (J Med Chem, 1978).
